From the NIST ThermoML archive (doi:10.1016/j.jct.2015.06.036)

Assay: refractive index (Na D-line) (dimensionless); xn = mol fraction of the nth substance listed
Conditions: 101 kPa, Liquid, Standard Abbe refractometry

CCCCn1cc[n+](C)c1.F[B-](F)(F)F [1-butyl-3-methylimidazolium tetrafluoroborate] + CO
refractive index
Conditions	288.15 K	298.15 K	308.15 K	318.15 K
x1 = 0.0113	1.337	1.3325	1.3285	1.3246
x1 = 0.0235	1.3428	1.3381	1.3343	1.3305
x1 = 0.0366	1.3481	1.3435	1.3398	1.3365
x1 = 0.0509	1.3539	1.3488	1.3453	1.3419
x1 = 0.0845	1.364	1.3595	1.3562	1.3536
x1 = 0.1254	1.3729	1.369	1.3657	1.3629
x1 = 0.1771	1.3827	1.3788	1.3754	1.3726
x1 = 0.2441	1.3912	1.3877	1.3845	1.3813
x1 = 0.3338	1.3999	1.3966	1.3934	1.3904
x1 = 0.4626	1.4082	1.4052	1.4022	1.3993
x1 = 0.5482	1.4123	1.4093	1.4064	1.4036
x1 = 0.6589	1.4163	1.4135	1.4107	1.408
x1 = 0.8037	1.4204	1.4177	1.415	1.4124
x1 = 1	1.4243	1.4217	1.419	1.4164

CCn1cc[n+](C)c1.F[B-](F)(F)F [1-ethyl-3-methylimidazolium tetrafluoroborate] + CO
refractive index
Conditions	288.15 K	298.15 K	308.15 K	318.15 K
x1 = 0.0136	1.3368	1.3324	1.3286	1.3247
x1 = 0.0283	1.3419	1.3376	1.3337	1.33
x1 = 0.044	1.3466	1.3423	1.3389	1.3357
x1 = 0.0615	1.3515	1.3474	1.3439	1.3402
x1 = 0.101	1.3604	1.3566	1.353	1.3495
x1 = 0.1485	1.3697	1.3659	1.3627	1.3592
x1 = 0.2073	1.3785	1.3749	1.3715	1.3685
x1 = 0.2817	1.3865	1.383	1.38	1.3768
x1 = 0.379	1.3937	1.3905	1.3874	1.3845
x1 = 0.5111	1.4008	1.3978	1.3949	1.3922
x1 = 0.5959	1.404	1.4012	1.3985	1.3958
x1 = 0.7027	1.4075	1.4048	1.4022	1.3996
x1 = 0.8297	1.4109	1.4082	1.4056	1.4031
x1 = 1	1.4143	1.4118	1.4092	1.4067
